Measurements taken from patent US6565830B1, “DTPA monoamides, pharmaceutical agents containing these compounds, their use and process for their production” (Schering Aktiengesellschaft, priority 1990, dated 2003).
Blank lines part the entries; values can stand above or below the molecule they belong to.

Columns and labels:
liver = assay: In vivo NMR diagnosis (MRI) after oral administration, rat; conditions: p.o. 0.5 mmol of Gd/kg
Source text: This finding agrees very well with the pharmacokinetic data.

Brown-Pearce tumor = assay: In vivo NMR diagnosis (MRI) after intravenous administration, rat with Brown-Pearce tumor in the liver; conditions: i.v. 0.1 mmol of Gd/kg
Procedure: A cell suspension of the Brown-Pearce tumor was injected in the liver in a test animal (rat, strain lew/mol, female, 155 g) two weeks before the test. In the method used, about 2 weeks were required until the tumor had reached the size of 0.5-1 cm^3 desired for the test.
For the test, the animal was anesthetized (Rompun+Ketavet) and then a catheter was placed in the caudal vein for the administration of the contrast medium.
The imaging took place in an MRI experimental device of the General Electric company (field strength 2 teslas). The first image was made without contrast media with a T1-weighted spin echo sequence (TR=400 msec, TE=20 msec, layer thickness 3 mm).

human serum albumin = human serum albumin (Homo sapiens, UniProt P02768); assay: Association with human serum albumin in aqueous solution; type: binding
[1] = cited from earlier work

Chain of human serum albumin (P02768 25-609): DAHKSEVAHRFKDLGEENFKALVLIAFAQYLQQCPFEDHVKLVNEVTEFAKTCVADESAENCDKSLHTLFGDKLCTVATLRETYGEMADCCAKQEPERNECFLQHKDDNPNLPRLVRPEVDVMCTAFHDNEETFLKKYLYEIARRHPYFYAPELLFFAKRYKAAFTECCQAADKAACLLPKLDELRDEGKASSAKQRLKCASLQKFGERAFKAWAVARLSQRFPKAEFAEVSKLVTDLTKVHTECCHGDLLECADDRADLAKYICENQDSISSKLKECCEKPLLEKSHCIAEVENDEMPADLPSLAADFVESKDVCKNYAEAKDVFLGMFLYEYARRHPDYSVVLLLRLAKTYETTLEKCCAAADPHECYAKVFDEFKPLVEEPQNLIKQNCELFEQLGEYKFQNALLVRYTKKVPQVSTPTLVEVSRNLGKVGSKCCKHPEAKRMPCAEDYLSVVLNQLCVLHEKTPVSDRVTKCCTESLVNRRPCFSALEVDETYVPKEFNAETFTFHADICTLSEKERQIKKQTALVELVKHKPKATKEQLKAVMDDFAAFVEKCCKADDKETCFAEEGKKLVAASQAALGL

secretion in the stomach (Brown-Pearce tumor): secreted in the stomach
SMILES: O=C(O)CCCCCCCCCCNC(=O)CN(CCN(CCN(CC(=O)O)CC(=O)O)CC(=O)O)CC(=O)O.[Gd] [Example 1b, Gadolinium complex of 3,6-bis(carboxymethyl)-9-(10-carboxydecylcarbamoylmethyl)-3,6,9-triazaundecanedioic acid]
resorption after oral administration (liver): resorbed in the small intestine after oral administration and is immediately taken up again for the most part by the liver
signal in the liver in MRI image (liver; 45 minutes after administration (image 3)): slight increase in the signal in the liver
enhancement in the liver in MRI image (liver; 180 minutes after administration (image 4)): marked enhancement
distribution of contrast medium between liver and tumor (Brown-Pearce tumor; 60 minutes): concentrated in the liver to a great extent, but, not in the tumor
enhancement of the stomach in MRI image (Brown-Pearce tumor; 60 minutes (image no. 2)): very strong enhancement
appearance of liver tumor in MRI image (Brown-Pearce tumor; 60 minutes after administration): considerably darker in comparison with the surrounding liver tissue
signal intensity of liver parenchyma in MRI image (Brown-Pearce tumor; 60 minutes after administration, T1-weighted spin echo, 2 teslas): very bright

association with human serum albumin (human serum albumin): forms associates
SMILES: CCCCCCC(CCCCCCCCCCC(=O)O)NC(=O)CN(CCN(CCN(CC(=O)O)CC(=O)O)CC(=O)O)CC(=O)O.[Gd] (centres unmarked) [Example 4b, Gadolinium complex of 3,6-bis(carboxymethyl)-9-(11-carboxy-1-n-hexyl-undecylcarbamoylmethyl)-3,6,9-triazaundecanedioic acid]

SMILES: CNC[C@H](O)[C@@H](O)[C@H](O)[C@H](O)CO.CNC[C@H](O)[C@@H](O)[C@H](O)[C@H](O)CO.O=C([O-])CN(CCN(CC(=O)[O-])CC(=O)O)CCN(CC(=O)[O-])CC(=O)O.[Gd+3] [Magnevist, gadolinium(III) complex of diethylenetriaminepentaacetic acid]
distribution after intravenous injection [1]: spreads extracellularly
route of elimination after intravenous injection [1]: eliminated by glomerular secretion through the kidneys
